Values after ≈ are worked out from the molar mass of the structure shown. “Also recorded” adds a separate entry of the source. Read-outs that look alike come from different tables or passages of the source.
Tests used:
P. aeruginosa PAO1 = assay: Broth microdilution susceptibility testing; format: cell-based; settings: Pseudomonas aeruginosa, PAO1, read-out: Minimum Inhibitory Concentration (MIC90) P. aeruginosa PAO1 − Thy
S. aureus = assay: Kirby-Bauer agar diffusion assay; format: cell-based; settings: both tested strains of S. aureus
[1] = tested on: E. coli W3310ΔmscL::Kan, E. coli K12 W3310ΔmscS, E. coli W3310; format: cell-based; settings: comparison between knock-out and WT strains
E. coli ATCC 25922 [2] = assay: Broth microdilution susceptibility testing; format: cell-based; settings: Escherichia coli, ATCC25922, read-out: Minimum Inhibitory Concentration (MIC90) E. coli ATCC 25922 − Thy
S. aureus ATCC 11632 = assay: Broth microdilution susceptibility testing; format: cell-based; settings: Staphylococcus aureus, ATCC11632, read-out: Minimum Inhibitory Concentration (MIC90) S. aureus ATCC 11632 − Thy
M. abscessus L948 = assay: MABA assay in M. abscessus; format: cell-based; settings: for IC50: Mycobacteroides abscessus, L948, read-out: Half-Maximal Inhibitory Concentration (IC50, μM) M. abscessus L948 MABA
Bacillus subtilis = assay: Kirby-Bauer agar diffusion assay; format: cell-based
M. tuberculosis H37Rv = assay: Microplate alamar blue assay; format: cell-based; settings: Mycobacterium tuberculosis
SaDHFR = SaDHFR (Staphylococcus aureus, UniProt P0A017); format: biochemical; settings: apparent IC50; purified S. aureus DHFR
SaDHFR, sequence (P0A017 whole entry): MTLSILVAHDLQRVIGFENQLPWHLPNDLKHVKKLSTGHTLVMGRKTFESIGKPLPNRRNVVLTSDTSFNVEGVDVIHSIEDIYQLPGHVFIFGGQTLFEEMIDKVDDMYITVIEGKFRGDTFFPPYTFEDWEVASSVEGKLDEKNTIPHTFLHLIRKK

E. coli ATCC 25922 [3] = assay: SYTOX Green uptake assay; format: cell-based; settings: any of the concentrations tested; melittin as positive control
Micrococcus luteus = assay: Kirby-Bauer agar diffusion assay; format: cell-based
[4] = read-out: Minimum Inhibitory Concentration (MIC90, μM) M. tuberculosis H37Rv MABA: 7H12 Media
[5] = read-out: Minimum Inhibitory Concentration (MIC90, μM) M. tuberculosis H37Rv MABA: GAST Media

SMILES: CC1(C)N=C(N)N=C(N)N1c1ccc(Cl)cc1 [CYC, cycloguanil]
- MIC90 (P. aeruginosa PAO1): > 128 µM
- activity in agar diffusion, S. aureus (S. aureus): no activity
- MIC values against E. coli ΔmscL, ΔmscS and WT parent strain set [1]: no significant differences
- MIC90 (E. coli ATCC 25922 [2]): > 128 µM
- MIC90 (S. aureus ATCC 11632): > 128 µM
- Half-Maximal Inhibitory Concentration (IC50, μM) M. abscessus L948 MABA (M. abscessus L948; MABA): no inhibition
- IC50 (M. abscessus L948): > 200 µM
- susceptibility / activity in agar diffusion, B. subtilis (Bacillus subtilis): susceptible; also recorded: low activity
- MIC90 (M. tuberculosis H37Rv; [4]): 74.8 µM (≈ 18.8 µg/mL)
- MIC90 (M. tuberculosis H37Rv; [5]): > 100 µM
- SaDHFR IC50 (μM ± SD) (SaDHFR): did not inhibit and nf^a
- SYTOX Green uptake (E. coli ATCC 25922 [3]): no uptake
- hemolysis (human erythrocytes): no detectable hemolysis
- susceptibility / activity in agar diffusion, M. luteus (Micrococcus luteus): no activity

SMILES: CC[C@H]1OC(=O)[C@H](C)[C@@H](O[C@H]2C[C@@](C)(OC)[C@@H](O)[C@H](C)O2)[C@H](C)[C@@H](O[C@@H]2O[C@H](C)C[C@H](N(C)C)[C@H]2O)[C@](C)(OC)C[C@@H](C)C(=O)[C@H](C)[C@@H](O)[C@]1(C)O [Clarithromycin]
- IC50 (M. abscessus L948): 15.4 µM
- inhibition plateau in M. abscessus MABA (M. abscessus L948; plateau from 12.5–200 μM): ~ 70%

SMILES: NNC(=O)c1ccncc1 [Isoniazid]
- MIC90 (M. tuberculosis H37Rv; [4]): 0.24 µM (≈ 0.0329 µg/mL)
- MIC90 (M. tuberculosis H37Rv; [5]): 0.12 µM (≈ 0.0165 µg/mL)

SMILES: COc1c(N2C[C@@H]3CCCN[C@@H]3C2)c(F)cc2c(=O)c(C(=O)O)cn(C3CC3)c12 [Moxifloxacin]
- MIC90 (M. tuberculosis H37Rv; [4]): 0.43 µM (≈ 0.173 µg/mL)
- MIC90 (M. tuberculosis H37Rv; [5]): 0.042 µM (≈ 0.0169 µg/mL)

SMILES: O=[N+]([O-])c1cn2c(n1)OC[C@@H](OCc1ccc(OC(F)(F)F)cc1)C2 [Pretomanid]
- MIC90 (M. tuberculosis H37Rv; [4]): 0.38 µM (≈ 0.137 µg/mL)
- MIC90 (M. tuberculosis H37Rv; [5]): 0.51 µM (≈ 0.183 µg/mL)

SMILES: CO[C@H]1/C=C/O[C@@]2(C)Oc3c(C)c(O)c4c(O)c(c(/C=N/N5CCN(C)CC5)c(O)c4c3C2=O)NC(=O)/C(C)=C\C=C\[C@H](C)[C@H](O)[C@@H](C)[C@@H](O)[C@@H](C)[C@H](OC(C)=O)[C@@H]1C [Rifampicin]
- MIC90 (M. tuberculosis H37Rv; [4]): 0.05 µM (≈ 0.0411 µg/mL)
- MIC90 (M. tuberculosis H37Rv; [5]): < 0.016 µM

SMILES: [H]/N=C(/N)N[C@H]1[C@H](O)[C@@H](O)[C@H](O[C@@H]2O[C@@H](C)[C@](O)(C=O)[C@H]2O[C@@H]2O[C@@H](CO)[C@H](O)[C@@H](O)[C@@H]2NC)[C@@H](N/C(N)=N\[H])[C@@H]1O [Streptomycin]
- MIC90 (M. tuberculosis H37Rv; [4]): 0.21 µM (≈ 0.122 µg/mL)
- MIC90 (M. tuberculosis H37Rv; [5]): 0.27 µM (≈ 0.157 µg/mL)

SMILES: COc1cc(Cc2cnc(N)nc2N)cc(OC)c1OC [TMP, trimethoprim]
- MIC values against E. coli ΔmscL, ΔmscS and WT parent strain set [1]: no significant differences
- SYTOX Green uptake (E. coli ATCC 25922 [3]): no uptake

— PMC11908892 (ACS infectious diseases, 2025)
